# Results as given in paper PMC8294803, “A Roadmap to the Structure-Related Metabolism Pathways of Per- and Polyfluoroalkyl Substances in the Early Life Stages of Zebrafish (Danio rerio)” (Environmental Health Perspectives, 2021).
# “And” between values parts separate entries of the source, which are not always exact repeats. Identical values can stand only once. “Also recorded” adds a separate entry of the source.
# Experiments:
# zebrafish embryos [1] = experiment: Time courses of carboxamides and PFCA metabolites in zebrafish embryos/larvae; assay type: in vivo, Danio rerio; conditions: zebrafish exposed to 5 μM of 19, 31 and 38 separately, N=20, three replicates
# Method: Time courses of carboxamides (19, 31, and 38) and corresponding perfluoroalkyl carboxylic acid (PFCA) metabolites in zebrafish larvae were investigated. The procedure of zebrafish embryo collection was described above. Twenty embryos were randomly assigned into each well of a 24-well plate. Subsequently, 15 wells were dosed with 3mL of each chemical ( 5μM ). […] The exposure medium was prepared fresh and changed each day, and dead larvae were discarded. For each chemical, 3 wells were harvested every 24 h, and the surviving larvae were transferred to three different tubes for further PFAS extraction ( N=12–18 ).
# [2] = target: liver fatty acid binding protein (L-FABP); parameters: method as in Yang et al. 2020; conditions: ref Yang et al. 2020; read-out: Kd (μM), L-FABP binding affinity; cited from earlier work
# zebrafish larvae [3] = experiment: Bioconcentration factors (BCF) of PFAS in zebrafish larvae; conditions: for BCF: exposure concentration not given
# Outline: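 Zebrafish embryos collected within 1 h post-spawning were exposed individually to each PFAS in facility water with DMSO controls, medium renewed every 24 h from 24 to 96 hpf. Live hatched larvae collected at 120 hpf, wet-weighed, extracted with dichloromethane/methanol and analysed by UHPLC–high-resolution MS against mass-labelled standards.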
# zebrafish larvae [4] = experiment: Nontargeted analysis of PFAS metabolites in zebrafish larvae (high-resolution MS); conditions: for Metabolites / hydrolysis products in zebrafish larvae: in vivo, nontargeted analysis
# Method: Zebrafish embryos were collected immediately after spawning, within 1 h, and subsequently transferred to 24-well plates with 1mL of facility water ( 0.036g sea salt, 0.15g sodium bicarbonate in 2L of reverse osmosis water). […] Three well replicates on the same plate were conducted for each concentration of individual chemical. […] Seven batches of experiments were performed to test all 74 PFAS. DMSO controls were incorporated in each batch of exposure experiments. Three replicates were performed for each treatment group, and 20 embryos were used for each replicate. […] For daily replenishment, 2.5mL of old exposure medium were replaced with freshly prepared medium every 24 h from 24 to 96 h post fertilization (hpf). Hatched or dead embryo numbers were recorded every 24 hpf, after which dead embryos were discarded from the growth media. Dead embryos or unhatched embryos were not used for PFAS measurement because the metabolism of PFAS might have been impacted. Zebrafish larvae collection occurred at 120 hpf. First, the larvae were anesthetized by cooling the plate in ice water (0–4°C) for ∼20 min . Then 8–15 larvae in each well were transferred into 1.5-mL tubes. Exposure media was carefully removed, and then the larvae were weighed (wet weight) after blotting excess water with a paper towel. […] Samples were stored at −80 °C until further chemical analysis was performed. Survival rate and hatching rate were calculated by summarizing all the documented data from the whole treatment duration. […] The exposure experiment of PFOSA was repeated using the same procedure as described above.
# Each sample was spiked with 2μL of 0.2μg/mL mass-labeled PFAS mixture. Following this, 500μL of dichloromethane/methanol (2:1, vol/vol) was added to each sample for PFAS extraction. Larvae were then homogenized via ultrasonic probe, followed by 30 min of shaking and 30 min of sonication. Each sample was centrifuged at 14,000×g for 5 min, after which the supernatant was transferred to new tubes. Extraction was repeated once and the two supernatants were combined, evaporated under nitrogen flow, and reconstituted in 200μL of methanol for MS analysis.
# Three microliters of each zebrafish extract was applied to a C18 column ( 1.5μm; 2.1mm×50mm; Thermo Scientific) and analyzed using a Vanquish ultra-HPLC system (Thermo Fisher Scientific) coupled to a Q Exactive high-resolution mass spectrometer (Thermo Fisher Scientific). The sampler and column compartments were maintained at 4°C and 40°C, respectively. The aqueous mobile phase solution (A) consisted of water, whereas the organic mobile phase solution (B) consisted of acetonitrile. […] MS data was acquired in full scan mode (100–1000 m/z, 70,000 mass resolution, 3×10^6 maximum ions collected per 100 ms), and tandem MS (MS/MS) data was recorded by all-ion fragmentation (AIF) mode. Negative and positive ion modes were carried out simultaneously at a 10-min method duration. […] An overview of the analyses conducted on the various PFAS is available in Table S2.
# Nontargeted data analysis was accomplished with R scripts that are available on Github (https://github.com/huiUofT/PFASmetabolite). […] The peak features were matched across samples with a mass tolerance of 2.5 ppm and a RT window of 20 s, after RT adjustment. The ratio of abundances of each feature in treatment groups relative to the control group (DMSO) was calculated. The p -values of the difference between two groups were determined by student’s t -tests.
# zebrafish embryos [5] = conditions: for pericardial oedemata, Mean / spinal curvature, Mean / tail dysplasia, Mean: 5μM through 120 hpf, malformation rate; for Mortality (%): 5 µM, exposure through 120 hpf
# [6] = target: T1, recombinant human liver carboxylesterase 1 (hCES1) (Homo sapiens, UniProt P23141); experiment: Hydrolysis of PFAS by recombinant hCES1; assay type: in vitro ADME; conditions: for percentage of polyfluoroalkyl carboxamide 19, hCES1: 100 μg/L hCES1; for percentage of polyfluoroalkyl carboxamide 19, hCES1 / percentage of polyfluoroalkyl carboxamide 19, Control: 37 °C, 1 hour, N=3; for percentage of polyfluoroalkyl carboxamide 19, Control: vehicle control without hCES1; for Parent PFAS, hCES1 (%) / Parent PFAS, Control (%): 10 μM PFAS, single replicates; for Parent PFAS, hCES1 (%): 100 μg/L hCES1, phosphate buffer 37 °C 1 hour, axis %Control; for Parent PFAS, Control (%): without hCES1, phosphate buffer 37 °C 1 hour
# T1 construct: purchased Sigma Aldrich
# T1 sequence (P23141 18-567): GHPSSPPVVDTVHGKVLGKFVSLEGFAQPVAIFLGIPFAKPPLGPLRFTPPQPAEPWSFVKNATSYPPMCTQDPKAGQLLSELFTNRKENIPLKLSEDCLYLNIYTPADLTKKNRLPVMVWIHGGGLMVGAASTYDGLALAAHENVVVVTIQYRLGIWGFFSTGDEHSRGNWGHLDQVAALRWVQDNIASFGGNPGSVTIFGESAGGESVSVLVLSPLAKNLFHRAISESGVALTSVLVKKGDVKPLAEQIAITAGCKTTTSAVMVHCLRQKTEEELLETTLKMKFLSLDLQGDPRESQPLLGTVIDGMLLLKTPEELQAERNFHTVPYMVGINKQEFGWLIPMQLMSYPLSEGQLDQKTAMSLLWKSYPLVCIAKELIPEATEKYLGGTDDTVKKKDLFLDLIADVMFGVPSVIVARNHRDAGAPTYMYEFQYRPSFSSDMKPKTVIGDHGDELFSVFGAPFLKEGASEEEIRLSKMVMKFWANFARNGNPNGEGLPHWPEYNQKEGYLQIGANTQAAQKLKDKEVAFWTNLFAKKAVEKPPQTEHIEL
# Method: Because recombinant zebrafish CES is not available, we decided to use hCES1 to evaluate the structure-related hydrolysis of PFAS. […] In vitro enzymatic activity experiments were carried out for 1 h in 1.5-mL tubes with 100μL phosphate buffer ( 137 mM sodium chloride, 10 mM phosphate buffer, 2.7 mM potassium chloride; pH 7.4) at 37°C with shaking. Reaction mixtures contained different concentrations of PFAS (1, 10, and 50μM ) and 100μg/L hCES1. […] To stop the hydrolysis reaction, four times the volume of ice-cold methanol was added. The hCES1 protein was precipitated out by centrifugation ( 14,000×g , 10 min). The supernatant was transferred to a new tube and analyzed via MS for the analysis of parent compounds and suspected metabolites (i.e., carboxylates).
Compound,Peak intensity in zebrafish (zebrafish embryos [1]; 24 hpf),Peak intensity in zebrafish (zebrafish embryos [1]; 48 hpf),Peak intensity in zebrafish (zebrafish embryos [1]; 72 hpf),Peak intensity in zebrafish (zebrafish embryos [1]; 96 hpf),Peak intensity in zebrafish (zebrafish embryos [1]; 120 hpf),"pericardial oedemata, Mean (zebrafish embryos [5])","spinal curvature, Mean (zebrafish embryos [5])","tail dysplasia, Mean (zebrafish embryos [5])",Mortality (%) (zebrafish embryos [5]),BCF (zebrafish larvae [3]; zebrafish larvae),Metabolites / hydrolysis products in zebrafish larvae (zebrafish larvae [4]),"Parent PFAS, hCES1 (%) [6]","Parent PFAS, Control (%) [6]",further results
O=C(O)C(F)(F)C(F)(F)C(F)(F)C(F)F [1H-PFPeA],41617598 and 43836041 and 44656574,60989972 and 64452114 and 58767796,101000000 and 97804534 and 98584848,168000000 and 176000000 and 174000000,221000000 and 206000000 and 215000000,,,,,,,,,
O=C(O)C(F)(F)C(F)(F)C(F)(F)F [PFBA (12)],10634213 and 16343253 and 15866316,25172596 and 26956389 and 28007592,26852594 and 32851030 and 26877542,47637483 and 46740315 and 40653414,68162507 and 69974600 and 72855428,,,,,,,,,
"O=C(O)C(F)(F)C(F)(F)C(F)(F)C(F)(F)F [PFPeA, perfluoropentanoic acid]",42022849 and 47643542 and 46800668,46439212 and 83368187 and 82483907,149000000 and 148000000 and 143000000,242000000 and 252000000 and 243000000,224000000 and 215000000 and 223000000,,,,,,,,,
"O=C(O)C(F)(F)C(F)(F)C(F)F [compound 4, 4H-Perfluorobutanoic acid]",,,,,,1.11%,2.22%,0.00%,0%,,,,,"Kd [2]: 352 µM; Concentration in zebrafish larvae directly exposed (zebrafish larvae [3]; 5μM of the PFCA itself): 7.0 ± 1.3 µM; BCF 0.5µM (zebrafish larvae [3]; zebrafish larvae, 0.5 µM exposure, 120 hpf, three replicates): 3.397 L/kg; BCF 5µM (zebrafish larvae [3]; zebrafish larvae, 5 µM exposure, 120 hpf, three replicates): 1.9 ± 0.4 L/kg; Peak intensity of PFCA in zebrafish embryos directly exposed to the PFCA (zebrafish larvae [4]; 5μM through 120 hpf, single replicates, listed as 1H-PFBA): 18758096 and 21668103 and 32644288"
"NC(=O)C(F)(F)C(F)(F)C(F)(F)C(F)(F)F [compound 19, Nonafluoropentanamide]",,,,,,0.00%,0.00%,0.00%,1.1%,< 10 L/kg,high abundances of metabolized carboxylates were detected,0.00%,100.46% and 90.28% and 109.26%,"percentage of polyfluoroalkyl carboxamide 19, hCES1 ([6]; 1 μM 19): 0.00%; percentage of polyfluoroalkyl carboxamide 19, Control ([6]; 1 μM 19): 114.95% and 85.05%; percentage of polyfluoroalkyl carboxamide 19, hCES1 ([6]; 10 μM 19): 0.00%; percentage of polyfluoroalkyl carboxamide 19, Control ([6]; 10 μM 19): 100.46% and 90.28% and 109.26%; Parent hydrolyzed by hCES1 ([6]; 10μM PFAS, 100μg/L hCES1): completely metabolized; percentage of polyfluoroalkyl carboxamide 19, hCES1 ([6]; 50 μM 19): 62.27% and 65.75% and 66.90%; percentage of polyfluoroalkyl carboxamide 19, Control ([6]; 50 μM 19): 96.65% and 95.06% and 108.30%"
"NC(=O)C(F)(F)C(F)(F)C(F)(F)F [compound 31, Heptafluorobutyramide]",,,,,,0.00%,0.00%,0.00%,2.2%,< 10 L/kg,high abundances of metabolized carboxylates were detected,88.80% and 125.28% and 71.56%,98.24% and 100.70% and 101.05%,
"NC(=O)C(F)(F)C(F)(F)C(F)(F)C(F)(F)C(N)=O [compound 58, Octafluoroadipamide]",,,,,,1.11%,1.11%,0.00%,6.7%,< 10 L/kg,metabolites were not detected; also recorded: no metabolite was detected,97.41% and 90.44% and 135.26%,83.59% and 76.79% and 139.62%,"Concentration of hydrolysis product ([6]; from 10μM of parent, 100μg/L hCES1, 37°C): not detected"
